As usually defined, the EC50 is the concentration that produces a half-maximal response. One may read the half-life as how long it takes for the measured level to halve.

One data set addresses T1, Y2 receptor (Homo sapiens, UniProt P49146).
T1 construct: host or cells: ACTOne HEK-293 cells
T1 sequence (P49146 1-381): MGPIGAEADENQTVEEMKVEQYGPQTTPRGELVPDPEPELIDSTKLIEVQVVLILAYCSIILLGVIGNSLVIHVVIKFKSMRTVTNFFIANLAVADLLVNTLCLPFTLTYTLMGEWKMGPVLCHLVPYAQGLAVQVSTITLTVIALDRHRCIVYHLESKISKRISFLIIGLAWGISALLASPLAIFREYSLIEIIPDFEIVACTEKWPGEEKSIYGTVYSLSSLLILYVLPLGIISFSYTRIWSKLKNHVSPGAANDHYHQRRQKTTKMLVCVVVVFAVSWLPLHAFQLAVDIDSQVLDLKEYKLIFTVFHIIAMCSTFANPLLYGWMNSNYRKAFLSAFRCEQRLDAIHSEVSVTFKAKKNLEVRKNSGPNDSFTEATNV
Nature of the data set: Y2 receptor ACTOne based FLIPR assay (cAMP biosensor). The format is cell-based. As to conditions: Table 2, PP analogues; ACTOne HEK-293 cells; read-out: Y2 cAMP EC50. The text has this: ACTOne™ is an easily scaleable cAMP biosensor HTS platform for measurement of Gs and Gi coupled 7™ receptor signalling from BD Biosciences (San Jose, Calif.). The cells express a biosensor developed around a modified rat olfactory cyclic nucleotide gated (CNG) calcium channel—a fairly non-discriminatory ion channel that responds to cAMP and cGMP. The CNG has been engineered to be cAMP selective and thus function as a cAMP responsive biosensor that signals through calcium or membrane potential responsive dyes. Y2 or Y4 receptor expressing ACTOne HEK-293 cells are obtained from BD Biosciences. The cells are loaded with a calcium responsive dye that only distributes in the cytoplasm. Probenecid, an inhibitor of the organic anion transporter is added to prevent the dye from leaving the cell. A phosphodiesterase inhibitor is added to prevent formatted cAMP from being degraded. Isoproterenol (an β1/β2 agonist) is added to activate the adenylate cyclase. When an Y2 or Y4 receptor agonist is added, the adenylate cyclase is inactivated. The decreased calcium concentration in the cytoplasm is then detected as an increase in fluorescence. Together with the test substance, Isoproterenol at a concentration matching EC80, is added to all wells. • The cells are plated out in Greiner 384-well plates. […] The plates are covered with tinfoil to avoid light (the dye can be excited by the daylight, which results in higher baseline and variation). • The FLIPR (FLIPRtetra from Molecular Devices, CA, USA) adds 1 μl sample and 1 μl isoproterenol (0.05 μM final concentration) at the same time. • The fluorescence signal from the wells is measured 330 seconds after sample addition on the FLIPR.

A further data set is described as follows: in vivo. Conditions: Göttingen, minipig, iv. On the procedure: (§1) The mini-pigs had two central venous catheters inserted which were used for intra venous (i.v.) dosing and bloodsampling. Compound was dissolved in 50 mM K2HPO4, 0.05% tween 80, pH=8.0 to a concentration of 180 nmol/ml. The pigs were dosed with 6 nmol compound/kg body weight. […] The blood samples were collected into test tubes containing EDTA buffer for stabilization and kept on ice for max. 20 minutes before centrifugation. The centrifugation procedure to separate plasma was; 4° C., 3000 rpm for 10 minutes. Plasma were collected and immediately transferred to Micronic tubes stored at −20° C. until assayed.
An additional mini-pig PK assay was used for measuring PK of the compounds of the invention. […] The animals had two central venous catheters inserted which were used for intra venous (i.v.) dosing and blood sampling. Compounds were dissolved in 10 mM Na2HPO4, 150 mM NaCl, 0.01% tween 80, pH=4.0 to concentrations in the range of 40 nmol/ml to 200 nmol/ml. The mini-pigs were dosed i.v. with 10 nmol compound/kg body weight, occasionally other doses such as 4 nmol/kg, 30 nmol/kg or 50 nmol/kg were administered. Each compound was dosed to 3 or 4 mini-pigs, and two compounds may be given simultaneously to the same animal. Blood were sampled pre-dose and 12 times during the first 10 hours post-dose. Blood were furthermore sampled once daily until 13 days post dosing. The blood samples were collected into test tubes containing EDTA buffer, trasylol and Val-Pyr for stabilization and kept on ice for max. 20 minutes. Samples were centrifuged at 4° C., 2000G for 10 minutes to separate plasma. Plasma were collected and immediately transferred to Micronic tubes stored at −20° C. until assayed.
Plasma samples were analysed by LC-MS on an LTQ-Orbitrap (ThermoFisher Scientific, Bremen) to which Accela HPLC pumps and an autosampler were connected (both from ThermoFisher). […] HPLC was performed on a Jupiter Proteo column (4μ) 90A (50×2.0 mm ID). […] The flow rate was 0.3 ml/min. For analysis of plasma samples, 30 μl plasma was precipitated with 90 μl ethanol. […] The heptane phase was removed after 5 min and the remaining solution was analysed by LC-MS as described above. For construction of plasma standards, compound was spiked to plasma (minipig) at the following concentrations: 1 nM, 2 nM, 5 nM, 10 nM, 20 nM, 50 nM, 100 nM, 200 nM. The plasma standards were treated as the samples. The lower limit of quantification was estimated to 2 nM.
Non-compartmental analysis (NCA): Plasma concentration-time profiles were analyzed by non-compartmental pharmacokinetics analysis (NCA) using WinNonlin Professional 5.0 (Pharsight Inc., Mountain View, Calif., USA). NCA was performed using the individual plasma concentration-time profiles from each animal.
For determination of plasma concentration of the PYY and PP peptide derivative or analogues thereof the following Methods 1-4 were used.
as §1, with “bloodsampling. The compound” for “bloodsampling. Compound”, “to an appropriate” for “to a”, “concentration (e.g. 25-500 nmol/mL).” for “concentration of 180 nmol/ml.”, “dosed intravenously (i.v.) or subcutaneously (s.c.)” for “dosed”, “with between 1 and 30” for “with 6”, “buffer (with Aprotinin 15000 KIE/mL and Val-Pyr 0.30 mM)” for “buffer”
An additional mini-pig PK assay was used for measuring PK of the compounds of the invention. […] The animals had two central venous catheters inserted which were used for intra venous (i.v.) dosing and blood sampling.

*1 amine or outer side, *2 acyl side, *3 side chain or, on linkers, in order; H or OH if unused. Where a SMILES comes first, the peptide text is derived from it. Side-chain parts run from the residue outwards. The star is where a group is joined. C20 diacid = O=C(O)CCCCCCCCCCCCCCCCCCC(=O)*; C18 diacid = O=C(O)CCCCCCCCCCCCCCCCC(=O)*; γGlu = O=C(O)[C@H](CCC(=O)[*:2])N[*:1]; Trx = NC[C@H]1CC[C@H](C(=O)O)CC1; AEEA = NCCOCCOCC(=O)O

As to `CC[C@H](C)[C@H](NC(=O)[C@H](Cc1ccc(O)cc1)NC(=O)[C@H](CCCNC(=N)N)NC(=O)[C@H](CCCNC(=N)N)NC(=O)[C@H](CC(C)C)NC(=O)[C@H](CC(=O)O)NC(=O)[C@H](C)NC(=O)[C@H](C)NC(=O)[C@H](Cc1ccc(O)cc1)NC(=O)[C@H](CCC(N)=O)NC(=O)[C@H](CCCCNC(=O)COCCOCCNC(=O)COCCOCCNC(=O)CC[C@H](NC(=O)CCCCCCCCCCCCCCCCC(=O)O)C(=O)O)NC(=O)[C@H](CC(C)C)NC(=O)[C@H](CCC(N)=O)NC(=O)[C@H](CCC(=O)O)NC(=O)[C@@H]1CCCN1C(=O)[C@@H](NC(=O)[C@H](C)NC(=O)[C@H](CC(N)=O)NC(=O)[C@H](CC(=O)O)NC(=O)CNC(=O)[C@@H]1CCCN1C(=O)[C@H](Cc1ccc(O)cc1)NC(=O)[C@@H](NC(=O)[C@@H]1CCCN1C(=O)[C@H](CCC(=O)O)NC(=O)[C@H](CC(C)C)NC(=O)[C@@H]1CCCN1)C(C)C)[C@@H](C)O)C(=O)N[C@@H](CC(N)=O)C(=O)N[C@@H](CC(C)C)C(=O)N[C@@H](CC(C)C)C(=O)N[C@H](C(=O)N[C@@H](CCCNC(=N)N)C(=O)N1CCC[C@H]1C(=O)N[C@@H](CCCNC(=N)N)C(=O)N[C@@H](Cc1ccc(O)cc1)C(N)=O)[C@@H](C)O` [SEQ ID NO: 32, N-epsilon18-[2-(2-{2-[2-(2-{2-[(S)-4-Carboxy-4-(17-carboxyheptadecanoylamino)butyrylamino]ethoxy}ethoxy)acetylamino]-ethoxy}ethoxy)acetyl][Lys18,Leu17,Leu30]hPP2-36] (H-PLEPVYPGDNATPEQLK([AEEA-AEEA-γGlu-C18 diacid])QYAADLRRYINLLTRPRY-NH2; N-terminus and C-terminus assumed), the concentration giving a half-maximal response (EC50) on Y2 receptor was more than 1000 nM. The half-life in “in vivo” (12 nmol/kg) is 46 h.

As for `CC[C@H](C)[C@H](NC(=O)[C@H](Cc1ccc(O)cc1)NC(=O)[C@H](CCCNC(=N)N)NC(=O)[C@H](CCCNC(=N)N)NC(=O)[C@H](CC(C)C)NC(=O)[C@H](CC(=O)O)NC(=O)[C@H](C)NC(=O)[C@H](C)NC(=O)[C@H](Cc1ccc(O)cc1)NC(=O)[C@H](CCC(N)=O)NC(=O)[C@H](CCCCNC(=O)COCCOCCNC(=O)COCCOCCNC(=O)CC[C@H](NC(=O)[C@H]1CC[C@H](CNC(=O)CCCCCCCCCCCCCCCCCCC(=O)O)CC1)C(=O)O)NC(=O)[C@H](CC(C)C)NC(=O)[C@H](CCC(N)=O)NC(=O)[C@H](CCC(=O)O)NC(=O)[C@@H]1CCCN1C(=O)[C@@H](NC(=O)[C@H](C)NC(=O)[C@H](CC(N)=O)NC(=O)[C@H](CC(=O)O)NC(=O)CNC(=O)[C@@H]1CCCN1C(=O)[C@H](Cc1ccc(O)cc1)NC(=O)[C@@H](NC(=O)[C@@H]1CCCN1C(=O)[C@H](CCC(=O)O)NC(=O)[C@H](CC(C)C)NC(=O)[C@@H]1CCCN1)C(C)C)[C@@H](C)O)C(=O)N[C@@H](CC(N)=O)C(=O)N[C@@H](CC(C)C)C(=O)N[C@@H](CC(C)C)C(=O)N[C@H](C(=O)N[C@@H](CCCNC(=N)N)C(=O)N1CCC[C@H]1C(=O)N[C@@H](CCCNC(=N)N)C(=O)N[C@@H](Cc1ccc(O)cc1)C(N)=O)[C@@H](C)O` [SEQ ID NO: 43, N-epsilon18-[2-(2-{2-[2-(2-{2-[(S)-4-Carboxy-4-({trans-4-[(19-carboxynonadecanoylamino)methyl]cyclohexanecarbonyl}amino)butyrylamino]-ethoxy}ethoxy)acetylamino]ethoxy}ethoxy)acetyl][Leu17,Lys18,Leu30]hPP2-36] (H-PLEPVYPGDNATPEQLK([AEEA-AEEA-γGlu-Trx-C20 diacid])QYAADLRRYINLLTRPRY-NH2; N-terminus and C-terminus assumed), the EC50 on Y2 receptor was more than 1000 nM. In the data set “in vivo” (13.5 nmol/kg), this compound showed a half-life of 55 h.

Turning to `CC[C@H](C)[C@H](NC(=O)[C@H](Cc1ccc(O)cc1)NC(=O)[C@H](CCCCNC(=O)COCCOCCNC(=O)COCCOCCNC(=O)CC[C@H](NC(=O)CCCCCCCCCCCCCCCCC(=O)O)C(=O)O)NC(=O)[C@H](CCCNC(=N)N)NC(=O)[C@H](CC(C)C)NC(=O)[C@H](CC(=O)O)NC(=O)[C@H](C)NC(=O)[C@H](C)NC(=O)[C@H](Cc1ccc(O)cc1)NC(=O)[C@H](CCC(N)=O)NC(=O)[C@H](C)NC(=O)[C@H](CC(C)C)NC(=O)[C@H](CCC(N)=O)NC(=O)[C@H](CCC(=O)O)NC(=O)[C@@H]1CCCN1C(=O)[C@@H](NC(=O)[C@H](C)NC(=O)[C@H](CC(N)=O)NC(=O)[C@H](CC(=O)O)NC(=O)CNC(=O)[C@@H]1CCCN1C(=O)[C@H](Cc1ccc(O)cc1)NC(=O)[C@@H](NC(=O)[C@@H]1CCCN1C(=O)[C@H](CCC(=O)O)NC(=O)[C@H](CC(C)C)NC(=O)[C@@H]1CCCN1)C(C)C)[C@@H](C)O)C(=O)N[C@@H](CC(N)=O)C(=O)N[C@@H](CC(C)C)C(=O)N[C@@H](CC(C)C)C(=O)N[C@H](C(=O)N[C@@H](CCCNC(=N)N)C(=O)N1CCC[C@H]1C(=O)N[C@@H](CCCNC(=N)N)C(=O)N[C@@H](Cc1ccc(O)cc1)C(N)=O)[C@@H](C)O` [SEQ ID NO: 46, N-epsilon26-[2-(2-{2-[2-(2-{2-[(S)-4-Carboxy-4-(17-carboxyheptadecanoylamino)butyrylamino]ethoxy}ethoxy)acetylamino]-ethoxy}ethoxy)acetyl][Leu17,Lys26,Leu30]hPP2-36] (H-PLEPVYPGDNATPEQLAQYAADLRK([AEEA-AEEA-γGlu-C18 diacid])YINLLTRPRY-NH2; N-terminus and C-terminus assumed), the concentration giving a half-maximal response (EC50) at Y2 receptor is more than 1000 nM. Further, the half-life in “in vivo” (4 nmol/kg) was 62 h.

The values are drawn from patent publication US20110275559A1, “Long-Acting Y2 and/or Y4 Receptor Agonists” (Novo Nordisk A/S, priority 2008, published 2011).
